US20190328712A1 (Treeway TW001 B.V., priority 2017, published 2019)

How the values were obtained:
[1] = ALS patients, Week 24; cited from earlier work
[2] = Single 60 mg dose of Radicut edaravone solution, oral and i.v. infusion, plasma pharmacokinetics in dogs; assay type: in vivo; details: male, beagle, dog, iv, i.v. infusion 60 mg (15 min)
Description: The study was conducted in a group of 4 male beagle dogs. […] After a wash-out period of 2 days, the animals received an intravenous infusion of two Radicut® ampoules (15 minutes infusion time).

[3] = as above; assay type: in vivo; details: male, beagle, dog; for concentration at […]: 0.25 hrs
[4] = Rate of dissolution of edaravone in water; assay type: physicochemical; details: in the presence of an alkalizing agent
[5] = rats, oral, 'raw' edaravone suspended with 0.5% CMC-Na, vs 100% intravenous; cited from earlier work
[6] = Single dose, randomized, two-period cross-over study, oral solution 140 mg vs i.v. 60 mg, plasma pharmacokinetics; assay type: in vivo; details: human
Description: A single dose, randomized, two-period, cross-over study was conducted in 18 healthy male and female human subjects.

[7] = iv, i.v. infusion 60 mg (15 min)
[8] = both sexes, plasma, iv, i.v. infusion 60 mg (60 minutes)
[9] = both sexes, plasma, iv, i.v. infusion (60 mg, 60 minutes)
[10] = both sexes, plasma, oral administration 140 mg
[11] = both sexes, plasma, oral administration (140 mg)

Tmax ([2]; 60 mg): 15 min
concentration at 0.083 h ([2]; 0.083 hrs): 3060 ng/mL
concentration at 0.5 h ([2]; 0.5 hrs): 648 ng/mL
concentration at 1 h ([2]; 1 hrs): 140 ng/mL
concentration at 2 h ([2]; 2 hrs): 49 ng/mL
concentration at 4 h ([2]; 4 hrs): 17 ng/mL
concentration at 8 h ([2]; 8 hrs): 6 ng/mL
bioavailability ([3]; oral 60 mg compared to iv infusion, read-out: systemic bioavailability (Fabs)): 34%
AUC(0-inf) ([3]; oral administration 60 mg): 553 ng·h/mL
AUC(0-t) ([3]; oral administration 60 mg): 542 ng·h/mL
Cmax ([3]; oral administration 60 mg): 2310 ng/mL
concentration at 0.083 h ([3]; oral administration 60 mg, 0.083 hrs): 2310 ng/mL
concentration at 0.17 h ([3]; oral administration 60 mg, 0.17 hrs): 994 ng/mL
concentration at […] ([3]; oral administration 60 mg): 491 ng/mL
concentration at 0.5 h ([3]; oral administration 60 mg, 0.5 hrs): 185 ng/mL
concentration at 1 h ([3]; oral administration 60 mg, 1 hrs): 84 ng/mL
concentration at 1.5 h ([3]; oral administration 60 mg, 1.5 hrs): 51 ng/mL
concentration at 2 h ([3]; oral administration 60 mg, 2 hrs): 36 ng/mL
concentration at 4 h ([3]; oral administration 60 mg, 4 hrs): 11 ng/mL
concentration at 6 h ([3]; oral administration 60 mg, 6 hrs): 5 ng/mL
Tmax ([3]; po, 60 mg, oral administration 60 mg): ~5 min
AUC(0-inf) [3, 7]: 1630 ng·h/mL
AUC(0-t) [3, 7]: 1600 ng·h/mL
Cmax [3, 7]: 4380 ng/mL
concentration at […] [3, 7]: 4380 ng/mL
concentration at 10 h ([3]; iv, i.v. infusion 60 mg (15 min), 10 hrs): 5 ng/mL
rate at which edaravone dissolves in water [4]: increased substantially
bioavailability ([6]; both sexes, plasma, oral, 140 mg, oral aqueous solution 140 mg compared to i.v. infusion 60 mg, read-out: systemic / absolute bioavailability (Fabs)): ~80%
AUC(0-inf) [6, 8]: 1300 ng·h/mL
AUC(0-t) [6, 8]: 1290 ng·h/mL
Cmax [6, 8]: 1030 ng/mL
Tmax [6, 8]: 60 min
concentration at 0.17 h [6, 9]: 380 ng/mL
concentration at 0.5 h [6, 9]: 713 ng/mL
concentration at 1 h [6, 9]: 990 ng/mL
concentration at 1.5 h [6, 9]: 321 ng/mL
concentration at 4 h [6, 9]: 42 ng/mL
concentration at 6 h [6, 9]: 14 ng/mL
concentration at 8 h [6, 9]: 8 ng/mL
concentration at 10 h [6, 9]: 5 ng/mL
AUC(0-inf) [6, 10]: 2410 ng·h/mL
AUC(0-t) [6, 10]: 2390 ng·h/mL
Cmax [6, 10]: 2940 ng/mL
concentration at 0.083 h ([6]; both sexes, plasma, oral administration (140 mg), 0.083 hrs): 1200 ng/mL
concentration at 0.17 h [6, 11]: 2360 ng/mL
concentration at […] ([6]; both sexes, plasma, oral administration (140 mg), 0.25 hrs): 2630 ng/mL
concentration at 0.5 h [6, 11]: 1810 ng/mL
concentration at 1 h [6, 11]: 689 ng/mL
concentration at 1.5 h [6, 11]: 354 ng/mL
concentration at 2 h ([6]; both sexes, plasma, oral administration (140 mg), 2 hrs): 203 ng/mL
concentration at 4 h [6, 11]: 68 ng/mL
concentration at 6 h [6, 11]: 24 ng/mL
concentration at 8 h [6, 11]: 13 ng/mL
concentration at 10 h [6, 11]: 9 ng/mL
time to peak maximum concentration after administration ([6]; oral administration 140 mg): about 15 min
Structure (SMILES): CC1=NN(c2ccccc2)C(=O)C1 [edaravone, 3-methyl-1-phenyl-2-pyrazolin-5-one]
decline on a clinical assessment of daily functioning compared to placebo [1]: declined less
absolute bioavailability (Fabs) [5]: 5.23%
